For 104 compounds, cytotoxicity results are on record in ChEMBL document CHEMBL3507680, “University of Dundee, Gates Library screen for HepG2 cell viability”.

This data set can be described thus: Human HepG2 cell viability assay in 384 well format. The class given is toxicity, cell-based. Set-up: dose 125 nL, time 70.5 hour; cytotoxicity at 70.5 h: concentration not given beside the values. The settings on record: HepG2 cells, read-out: Inhibition.

Take `COCCN(CCC#N)S(=O)(=O)c1ccc(F)cc1Cl`: the cytotoxicity at 70.5 h was 0.577%.

Turning to `CC(C)n1c(C2CCCN(CC(N)=O)C2)nc2ccccc21` (centres undefined), the cytotoxicity at 70.5 h is -1.68%. In the case of `CSc1cc2c(cc1NC(=O)NCc1ccco1)OCCO2` it was -5.54%. In the case of `N#Cc1ccc(CNC2CCN(CCc3ccncc3)CC2)cc1` it was -1.86%; in that of `CC(CNC(=O)N1CCS(=O)(=O)CC1)Cc1cccs1` (centres undefined), -1.72%. The value for `CC(CNC(=O)N1CCN(c2ncccn2)CC1)Cc1cccs1` (centres undefined) was 17.5%; that for `Oc1cccc(CNC2CCN(CCc3ccncc3)CC2)c1` was -1.4%; that for `Fc1ccc(CNC2CCN(CCc3ccncc3)CC2)cc1F` was -3.84%. As to `Cc1cccc(CNC2CCN(CCc3ccncc3)CC2)c1C`, the cytotoxicity at 70.5 h was -3.09%.

In the case of `CC(CNC(=O)N1CCC(CO)CC1)Cc1cccs1` (centres undefined), the cytotoxicity at 70.5 h is -3.99%. The value for `Cc1cnc(CN2CCCC(c3nc4ccccc4n3C(C)C)C2)o1` (centres undefined) was 20.6%.

For `O=C1CCc2cc(OCCN3CCc4cncnc4C3)ccc2N1`, the cytotoxicity at 70.5 h was -3.56%.

Take `Cc1noc(C)c1CNc1cccc(C(=O)N2CCCC(O)C2)c1` (centres undefined): the cytotoxicity at 70.5 h is -9.24%.

Take `COc1ccc(CC(=O)N(C)C2CCN(C)C2=O)cc1F` (centres undefined): the cytotoxicity at 70.5 h was -6.33%. In the case of `Cc1ncsc1-c1nc(-c2cccc(CN3CCOCC3)c2)no1` it was -6.25%; in that of `CCN(CC(=O)Nc1c(C)n[nH]c1C)CC(O)c1ccc(C)cc1` (centres undefined), 13.8%. The value for `CSC1(CNc2ncc(Br)cn2)CCOCC1` was -0.0448%; that for `Cc1n[nH]c(C2CN(CCCOc3ccc(F)cc3)CCO2)n1` (centres undefined) was -12.3%; that for `CC(C)Nc1ncccc1C(=O)NCc1ncc[nH]1` was -1.28%. The value for `CNC(=O)Cc1nc(CNc2ccc(SC)c(F)c2)cs1` was -0.256%. Take `Cc1ccc(F)c(NCC(C)(C)S(C)(=O)=O)c1`: the cytotoxicity at 70.5 h was -2.22%.

As to `COc1ccc(F)c(NCC(C)(C)S(C)(=O)=O)c1`, the cytotoxicity at 70.5 h was -4.68%. The value for `CCN(C)S(=O)(=O)N(CC)Cc1cccc(-c2ccncc2)c1` was -4.01%. In the case of `CCc1n[nH]c(C2CN(CCCOc3cccc(C)c3)CCO2)n1` (centres undefined) it was -3.37%. The value for `CCN(CC(=O)Nc1c(C)nn(C)c1C)CC(O)c1ccc(C)cc1` (centres undefined) was -5.69%. With `O=C(c1ccoc1)N1CCCCC1c1nc[nH]n1` (centres undefined), the cytotoxicity at 70.5 h is -1.78%.

On to `CS(=O)(=O)CCCN1CCOC2(CCc3ccccc32)C1` (centres undefined), for which the cytotoxicity at 70.5 h was determined as 0.769%. In the case of `c1ccc(CCN2CCOC3(CCc4ccccc43)C2)nc1` (centres undefined) it was -15.8%. In the case of `O=C(c1ccccc1)C1CCN(Cc2cc3c(cc2O)CCC3)CC1` it was 33.9%; in that of `CC(=O)c1c[nH]c(C(=O)N2CCN(C(C(N)=O)c3ccccc3)CC2)c1` (centres undefined), 47.9%. In the case of `Cc1nc2ccccc2n(Cc2nnnn2C2CC2)c1=O` it was -5.13%; in that of `CCN(C(=O)c1ccccc1I)C1CC(=O)NC1=O` (centres undefined), 4.4%; in that of `COc1cccc(CN(C(=O)Nc2nncs2)C2CCC(O)CC2)c1` (centres undefined), 0.476%. As to `CCCC(=O)NCC(=O)NC1CC(C)(C)Cc2oc(C)cc21` (centres undefined), the cytotoxicity at 70.5 h is -5.41%. In the case of `CN(Cc1ccncc1)C(=O)c1ccc(F)c(NS(C)(=O)=O)c1` it was -4.24%. For `O=C(Nc1ccnn1C1CCCC1)c1ccc(NC2CC2)nc1`, the cytotoxicity at 70.5 h amounted to 3.1%. In the case of `Cc1cc(NC(=O)CN2CCCC(Cn3cncn3)C2)on1` (centres undefined) it was -3%; in that of `CC(C)(O)CNC(=O)c1sccc1Br`, 0.0507%.

`Cc1cc(C(=O)N2CCOC(c3nc(C)n[nH]3)C2)[nH]n1` (centres undefined): the cytotoxicity at 70.5 h came out at 3.96%.

On to `CC(C)NC(=O)NCCCOC1CCOCC1`, for which the cytotoxicity at 70.5 h was -4.28%. In the case of `CCC(NC(=O)Nc1cc(F)c(OC)c(F)c1)c1noc(C)n1` (centres undefined) it was 0.154%.

As for `O=C(Nc1cccn(CC(F)(F)F)c1=O)c1ccncc1F`, the cytotoxicity at 70.5 h is -11.6%. In the case of `O=C(NC1CC1)NC(c1cc(F)ccc1F)C1CC1` (centres undefined) it was -5.9%; in that of `O=C(c1[nH]nc(C2CC2)c1Cl)N1CCCC1`, 3.72%. As to `O=C(NC1CCN(C2CC2)CC1)c1[nH]nc(C2CC2)c1Cl`, the cytotoxicity at 70.5 h is -4.43%. The value for `Cc1nn(C)c(C)c1OCC(=O)N1CCC(O)(C(F)(F)F)CC1` was -6.23%; that for `CC(C)(C)c1cc(NC(=O)CN2CCCC(Cn3cncn3)C2)on1` (centres undefined) was 25.7%.

Take `Cc1cnn(CCCNC(=O)C2CCCCN2Cc2ccncc2)c1` (centres undefined): the cytotoxicity at 70.5 h is -4.19%. The value for `Cc1nccn1CCCNC(=O)C1CCCCN1Cc1ccncc1` (centres undefined) was -2.44%; that for `CC(C)OCCN1CCN(C(=O)c2cc(-n3cccn3)ccn2)CC1` was -4.55%; that for `Cc1cnn(CCCNC(=O)C2CCCCN2Cc2cccnc2)c1` (centres undefined) was 0.0952%. With `CC(C)(C)c1cc(NC(=O)CN2CCCCC2Cn2cncn2)on1` (centres undefined), the cytotoxicity at 70.5 h is -5.88%.

Consider `CN(C)c1cccc(C(=O)N2CCn3c(nnc3-c3ccccc3)C2)c1`, for which the cytotoxicity at 70.5 h is -7.74%. The value for `CN(C)C(CNC(=O)NCc1ccco1)c1cccs1` (centres undefined) was -6.4%; that for `Cc1nc(C2(NCc3cc(C#N)ccc3F)CCCCC2)no1` was -17.2%. The value for `O=C(NCCn1ccnc1)c1cncc(Br)c1` was 19.8%; that for `NC(=O)CCS(=O)(=O)Cc1ccc(OCC(F)(F)F)cc1` was -9.93%; that for `CCN(CC)S(=O)(=O)NCCc1cc(C)ccc1OC` was -15.7%. In the case of `CCC1CN(c2cnn(C)c(=O)c2Br)CCO1` (centres undefined), the cytotoxicity at 70.5 h is -1.58%.

With `CCSc1ccc(NC(=O)NC(C)c2c(C)noc2C)cn1` (centres undefined), the cytotoxicity at 70.5 h is -6.61%. With `CN(C)c1cccc(C2CCCN2S(N)(=O)=O)c1` (centres undefined), the cytotoxicity at 70.5 h was -1.57%. In the case of `O=C(NC1CCCN(c2ccc(OC(F)F)cc2)C1)c1c[nH]nn1` (centres undefined) it was 18.5%. For `O=C(NC1CCCN(c2ccc(OC(F)F)cc2)C1)c1cnc[nH]1` (centres undefined), the cytotoxicity at 70.5 h is -11.2%. In the case of `NS(=O)(=O)N1CCC(CSc2ccccc2)C1` (centres undefined) it was -9.2%; in that of `Cc1nc(C2(NC(=O)NCc3cc(C#N)ccc3F)CCCC2)no1`, -10.1%; in that of `OCc1ccc(CNc2ccccc2CN2CCC(O)CC2)o1`, -4.84%. In the case of `O=S(=O)(CCO)Cc1ccc(OCC(F)(F)F)cc1`, the cytotoxicity at 70.5 h was -9.29%. The value for `COc1ccccc1CNC1(CCO)CCOCC1` was 20.6%; that for `Cc1c(Br)cccc1CNC1(CCO)CCOCC1` was -1.58%; that for `CC(C)OCCS(=O)(=O)N1CCCC1c1cccc(N(C)C)c1` (centres undefined) was -5.82%. In the case of `CCc1cnc(CN2CCC(O)(c3cc(OC)cc(OC)c3)CC2)o1` it was -12.2%; in that of `Cn1c(C2CC2)nc2c1CCN(CCc1ccccn1)C2`, -5.41%; in that of `CCSc1ccc(NC(=O)NC(C)c2ccncc2)cn1` (centres undefined), -5.74%. As to `CN(C)C(CNC(=O)N(Cc1ccco1)C1CC1)c1cccs1` (centres undefined), the cytotoxicity at 70.5 h was -11.4%. In the case of `Cc1nnc(C(C)N(C)Cc2c(C)nn(-c3ccccc3C)c2C)o1` (centres undefined) it was 2.96%; in that of `COCCOCCNC(=O)N1CCc2c(F)ccc(F)c2C1`, 2.28%; in that of `Cc1nccn1-c1ncccc1NC(=O)CCOCC(C)C`, -7.64%. The value for `CN(CC(N)=O)C(=O)C1Cc2cc(Cl)ccc2O1` (centres undefined) was -5.33%; that for `Cc1cnn(CCCNCc2csc(COc3ccccc3)n2)c1` was -3.68%; that for `Cc1ccc(C2CSCCN2C(=O)c2cc(C(N)=O)cs2)o1` (centres undefined) was -8.27%. For `O=C(NC1CC1)c1ccccc1NCc1cn2cccnc2n1`, the cytotoxicity at 70.5 h is -5.34%.

Turning to `CN1CCN(S(=O)(=O)c2ccc(Cl)c(Cl)c2)c2cnccc21`, the cytotoxicity at 70.5 h was -0.75%.

In the case of `CN1CCN(S(=O)(=O)c2cccnc2)c2cnccc21`, the cytotoxicity at 70.5 h was -3.64%. In the case of `CN1CCN(S(=O)(=O)c2cccc(F)c2)c2cnccc21` it was -2.79%. The value for `O=S(=O)(NC1CCCCC12OCCO2)c1cc(F)cc(F)c1` (centres undefined) was -3.19%; that for `O=S(=O)(NC1CCCCC12OCCO2)c1cc(Cl)cc(Cl)c1` (centres undefined) was -3.17%; that for `Cc1[nH]ncc1C(=O)NCC(CO)Cc1ccc(Cl)cc1` (centres undefined) was -5.24%. For `CC(CO)(NC(=O)NCc1ccc(Br)s1)C1CC1` (centres undefined), the cytotoxicity at 70.5 h was -8.92%. The value for `Cc1cc2c(cc1NC(=O)NCC(C)C)OCO2` was -8.91%. In the case of `CC(C)c1ccc(C(C)N2CCCN(C(N)=O)CC2)cc1` (centres undefined) it was -5.71%.

As to `Cc1cc2c(cc1NC(=O)NC(C)(C)C)OCO2`, the cytotoxicity at 70.5 h is -7.87%. For `c1ccc(Cc2nc(CNCCn3cccn3)cs2)cc1`, the cytotoxicity at 70.5 h stood at 1.06%. The value for `CC(c1ccc(Br)cc1)N1CCCN(C(N)=O)CC1` (centres undefined) was -5.26%; that for `O=C(NCC(CO)Cc1ccc(Cl)cc1)c1ccncc1Cl` (centres undefined) was -1.15%; that for `CCN(CC)S(=O)(=O)N(Cc1cccc(C)c1)Cc1ccccn1` was 19.3%. For the compound `Cc1cc(NCc2ccc(CS(N)(=O)=O)cc2)nc(C)n1`, the cytotoxicity at 70.5 h is -12.6%. In the case of `O=C1CN(CCS(=O)(=O)c2ccc(Cl)cc2)CCN1` it was -11.9%; in that of `CC(C)CNc1nnc(SC(C(=O)NCc2cccnc2)C(C)C)s1` (centres undefined), -15.2%; in that of `O=C1CCN(CCS(=O)(=O)c2ccc(Cl)cc2)CCN1`, -11.7%. The value for `COc1ccccc1-c1csc(NC(=O)N2CCN(C)CC2C)n1` (centres undefined) was -14.7%; that for `CC(C)C(=O)NS(=O)(=O)c1ccc(F)c(C(F)(F)F)c1` was -10.6%.

For `CC(C)CCN1CCN(C(=O)c2c[nH]c(=O)[nH]2)CC1`, the cytotoxicity at 70.5 h is -8.02%. The value for `COCCN1CCC(Nc2c(F)cc(C#N)cc2F)CC1` was -14.5%. Regarding `CCC1CN(C)c2ccccc2CN1C(=O)Nc1ccccc1OC` (centres undefined), the cytotoxicity at 70.5 h turned out to be 16.8%.
